According to ChEMBL document CHEMBL1201862, “PubChem BioAssay data set” (2004):
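Method: 48-hour compound exposure of cells in 96-well plates, five concentrations, linear interpolation of endpoints. GI50 marks 50% less growth.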 Activity calls are given as the source filed them. Cut-off read from the data, not from the text of the source: active = GI50 up to about 1.1 µM and inactive = higher.

Key:
Assay in all cases: NCI-60 cell line screen, 48 h
[1] = system: 786-0
[2] = system: A549
[3] = system: COLO 205
[4] = system: HT-29
[5] = system: Hs-578T
[6] = system: M14
[7] = system: MDA-MB-435
[8] = system: Malme-3M
[9] = system: NCI-H226
[10] = system: NCI-H522
[11] = system: OVCAR-4
[12] = system: RPMI-8226
[13] = system: RXF 393
[14] = system: SF-268
[15] = system: SN12C
[16] = system: SNB-19
[17] = system: SNB-75
[18] = system: U-251
[19] = system: UACC-62
[20] = system: UO-31

| Structure (SMILES) | GI50 [1] | GI50 [2] | GI50 [3] | GI50 [4] | GI50 [5] | GI50 [6] | GI50 [7] | GI50 [8] | GI50 [9] | GI50 [10] | GI50 [11] | GI50 [12] | GI50 [13] | GI50 [14] | GI50 [15] | GI50 [16] | GI50 [17] | GI50 [18] | GI50 [19] | GI50 [20] |
| --- | --- | --- | --- | --- | --- | --- | --- | --- | --- | --- | --- | --- | --- | --- | --- | --- | --- | --- | --- | --- |
| CC1=NN(c2nc(N)nc(C(C#N)C(=O)c3cc4c(cc3Cl)Sc3nccn3S4(=O)=O)n2)C(C)(C)C1 (stereo not given) | 13.5 µM (inactive) | 61.4 µM (inactive) | 24.9 µM (inactive) | 34.3 µM (inactive) | 32.2 µM (inactive) | 34.5 µM (inactive) | 22.8 µM (inactive) | 14.3 µM (inactive) | 16.5 µM (inactive) | 18.6 µM (inactive) | 10.1 µM (inactive) | 14.9 µM (inactive) | 27.3 µM (inactive) | 13.6 µM (inactive) | 17.3 µM (inactive) | 55.6 µM (inactive) | 16.1 µM (inactive) | 16 µM (inactive) | 18.8 µM (inactive) | 30.1 µM (inactive) |
| Cc1cc2c(cc1Cl)S(=O)(=O)OC(c1ccc([N+](=O)[O-])cc1)=N2 | > 100 µM (inactive) | > 100 µM (inactive) | > 100 µM (inactive) | > 100 µM (inactive) | > 100 µM (inactive) | > 100 µM (inactive) | > 100 µM (inactive) | > 100 µM (inactive) | > 100 µM (inactive) | > 100 µM (inactive) | > 100 µM (inactive) | > 100 µM (inactive) | > 100 µM (inactive) | > 100 µM (inactive) | > 100 µM (inactive) | > 100 µM (inactive) | 44.4 µM (inactive) | > 100 µM (inactive) | > 100 µM (inactive) | > 100 µM (inactive) |
| CCCCCCCCCCCCNC(=O)CCC(NC(=O)c1ccc(N(C)Cc2cnc3nc(N)nc(N)c3n2)cc1)C(=O)NCCCCCCCCCCCC (stereo not given) | 22.6 µM (inactive) | > 100 µM (inactive) | > 100 µM (inactive) | > 100 µM (inactive) | 27.2 µM (inactive) | 56.5 µM (inactive) | 52.8 µM (inactive) | 95.5 µM (inactive) | > 100 µM (inactive) | > 100 µM (inactive) | 64.1 µM (inactive) | > 100 µM (inactive) | 18.4 µM (inactive) | 78.3 µM (inactive) | 91.8 µM (inactive) | 22.9 µM (inactive) | 3.68 µM (inactive) | 12.3 µM (inactive) | 55.5 µM (inactive) | > 100 µM (inactive) |
| CN(C)CCCC1c2ccccc2Oc2ccc(C(F)(F)F)cc21 (stereo not given) | 12.4 µM (inactive) | 14.9 µM (inactive) | 4.65 µM (inactive) | 5.28 µM (inactive) | 14.5 µM (inactive) | 5.75 µM (inactive) | 6.64 µM (inactive) | 2.79 µM (inactive) | 8.2 µM (inactive) | 14.3 µM (inactive) | 14.5 µM (inactive) | 8.2 µM (inactive) | 7.19 µM (inactive) | 14.3 µM (inactive) | 13.5 µM (inactive) | 16.7 µM (inactive) | 14.3 µM (inactive) | 11.4 µM (inactive) | 9.42 µM (inactive) | 1.82 µM (inactive) |
| CC(=O)c1sc2[n+](c1C)C(=O)/C(=C\c1ccccc1Cl)S2 | 21.9 µM (inactive) | 19.6 µM (inactive) | 14.9 µM (inactive) | 20.6 µM (inactive) | 47.8 µM (inactive) | 18.6 µM (inactive) | 15.3 µM (inactive) | 17.5 µM (inactive) | 13.3 µM (inactive) | 18.2 µM (inactive) | 29.2 µM (inactive) | 17.5 µM (inactive) | 26.1 µM (inactive) | 23.2 µM (inactive) | 34.2 µM (inactive) | 20.3 µM (inactive) | 26.8 µM (inactive) | 16.6 µM (inactive) | 13.1 µM (inactive) | 19.3 µM (inactive) |
| O=[N+]([O-])c1nccn1CC(O)CN1CCCCC1 (stereo not given) [PIMONIDAZOLE] | > 100 µM (inactive) | > 100 µM (inactive) | > 100 µM (inactive) | > 100 µM (inactive) | > 100 µM (inactive) | > 100 µM (inactive) | > 100 µM (inactive) | > 100 µM (inactive) | > 100 µM (inactive) | > 100 µM (inactive) | > 100 µM (inactive) | > 100 µM (inactive) | > 100 µM (inactive) | > 100 µM (inactive) | > 100 µM (inactive) | > 100 µM (inactive) | > 100 µM (inactive) | > 100 µM (inactive) | > 100 µM (inactive) | > 100 µM (inactive) |
| CC1=CC(=O)c2c(O)cccc2C1=O [PLUMBAGIN] | 1.65 µM (inactive) | 11.5 µM (inactive) | 1.86 µM (inactive) | 1.89 µM (inactive) | 2.91 µM (inactive) | 1.86 µM (inactive) | 1.73 µM (inactive) | 0.966 µM (active) | 6.55 µM (inactive) | 1.57 µM (inactive) | 1.76 µM (inactive) | 0.891 µM (active) | 1.64 µM (inactive) | 2.17 µM (inactive) | 1.94 µM (inactive) | 12 µM (inactive) | 5.51 µM (inactive) | 6.17 µM (inactive) | 1.94 µM (inactive) | 1.61 µM (inactive) |
